Holding throughout (format): cell-based, human
In experiment [1] the test system is hESC and hiPSC (FES 29, HEL 11.4) attachment to ECA. As to the kind of experiment: Validation of binding specificity: inhibition of cell attachment onto ECA. The settings on record: for inhibition of cell attachment onto ECA: 100 mM in culture media, attached cells counted after 20 h; for total number of attached cells with vs without pinacidil: on ECA, counted 20 h after plating. As for the experimental part: Cells were passaged and plated as described earlier. The two compounds expected to act as specific binding inhibitors for ECA were lactose monohydrate (Sigma-Aldrich, 100 mM) and lacto-N-neotetraose (Kyowa Hakko Kogyo, 100 mM). Saccharose (Sigma-Aldrich, 100 mM) was used as a control. The inhibitors were added to culture media at the time of passaging and the attached cells were counted after 20 hours.
To assess the specificity of the cell-lectin interaction in supporting stem cell attachment to the growth surface, we performed inhibition experiments with specific disaccharide inhibitors and control disaccharides. […] The experiments were performed either in the presence (FIG. 4A) of absence (FIG. 4B) of pinacidil. Even if the effect of the inhibitors was similar in both conditions, the total number of attached cells was […] with pinacidil.
The attached cells were counted 20 h after plating. Data represent the mean (±SEM) of both cell lines, FES 29 and HEL 11.4. The total number of attached cells was 2-4 fold higher when Pinacidil was used (p<0.001).

Experiment [2] concerns hPSC lines FES29 and HEL 11.4. Nature of the experiment: Long-term culture of hPSC lines on ECA-coated plates (markers, qPCR array, karyotype). The conditions noted are these: mEF conditioned media. The method, then: Cells were passaged by using 0.1 mg/ml collagenase IV (Invitrogen) for 5 min at +37° C. and harvested onto ECA (Sigma-Aldrich) and Matrigel (Becton Dickinson) coated plates and cultured either in StemPro® or in mEF conditioned-medium (CM) (KO-DMEM supplemented with 20% KO-SR, 2 mM Glutamax, 0.1 mM β-mercaptoethanol, 0.1 mM non-essential amino acids (NEAA), all from Invitrogen, Carlsbad, Calif., USA) and supplemented with 8 ng/ml recombinant human bFGF (Invitrogen, Carlsbad, Calif., USA). Pinacidil (Sigma-Aldrich, 100 μM) was added to culture media during passaging. In some experiments, Y-27632 (10 μM) was added to culture media during passaging. In all experiments MatrigelTM (BD Biosciences) was used as control matrix. The Matrigel plates were prepared as recommended by the manufacturer. […] Real time SYBR Green quantitative PCR (qPCR) analyses was performed with Corbett Rotor-Gene 6000 (Corbett Life Science, Sydney, Australia) using the following conditions: 95° C. […] The data was analyzed according to comparative Ct method (Applied Biosystems, User Bulletin #2). […] All samples and controls were analyzed in duplicates. […] Karyotype was detected by G-banding technique in cytogenetics laboratory of the […] […] Long-term culturing on ECA-coated plates was evaluated with hPSCs lines (FES29 and HEL 11.4) and the results were compared to the same cell lines cultured on Matrigel. […]

For experiment [3], the system named is hPSC cells. Nature of the experiment: Clonogenicity assay on dispersed single cells. The settings on record: pinacidil 100 μM during passaging.
Description: Cells were dissociated with TrypLE for 5 minutes and passed through an 80-μm cell strainer (Becton Dickinson). Dissociated single cells from either ECA or Matrigel were seeded onto both ECA and Matrigel (35 cells/cm^2) and cultured in mouse embryonic fibroblast-conditioned medium (CM) supplemented with 8 ng/ml basic fibroblast growth factor (bFGF). Pinacidil (100 μM) was used during passaging. To evaluate clonogenic capacity, cells were alkaline phosphatase stained and colony numbers were counted 10 days after plating.
The ability of the ECA matrix to support clonogenicity of hPSC cells was studied by plating dispersed cells first adapted to ECA or Matrigel for at least two passages on either of the two matrices at the density of 35 cells/cm^2.

“Also recorded” adds a separate entry of the source.

For `CC(=O)N[C@H]1[C@H](O[C@H]2[C@@H](O)[C@@H](CO)O[C@@H](O[C@H]3[C@H](O)[C@@H](O)C(O)O[C@@H]3CO)[C@@H]2O)O[C@H](CO)[C@@H](O[C@@H]2O[C@H](CO)[C@H](O)[C@H](O)[C@H]2O)[C@@H]1O` (mixture of isomers) [lacto-N-neotetraose], the “inhibition of cell attachment onto ECA” value in experiment [1] is on record as “as effective as lactose; also recorded: inhibited significantly”.
In the case of `O.OC[C@H]1O[C@@H](O[C@H]2[C@H](O)[C@@H](O)C(O)O[C@@H]2CO)[C@H](O)[C@@H](O)[C@H]1O` (some centres unmarked) [Lactose, lactose monohydrate], the “inhibition of cell attachment onto ECA” value in experiment [1] (listed as lactose monohydrate, monohydrate) is “inhibited significantly”; in experiment [1] (monohydrate), “inhibited cell attachment effectively”.
For `CC(N/C(=N\C#N)Nc1ccncc1)C(C)(C)C` (centres unmarked) [pinacidil], in experiment [2], the “cell attachment and morphology on ECA without/with Rho-associated kinase inhibitor during passaging” value is “Without pinacidil the cells did not attach as effectively”. In addition, the “total number of attached cells with vs without pinacidil” value in experiment [1] is on record as 4 fold; in experiment [1] (listed as Pinacidil), 2-4 fold. The “development and survival of single-cell derived clones” value in experiment [3] was “highly useful”.
For the molecule `OC[C@H]1O[C@@](CO)(O[C@H]2O[C@H](CO)[C@@H](O)[C@H](O)[C@H]2O)[C@@H](O)[C@@H]1O` [saccharose], the “inhibition of cell attachment onto ECA” value in experiment [1] was “no inhibitory activity”.
